{"source": "patent US20130231316A1", "about": "“Drug Combination Comprising a Selective Serotonin Reuptake Inhibitor and a Glucocorticoid Receptor Antagonist for the Treatment of Depression” (priority 2004, published 2013)", "test_system": "5-HT1A autoreceptor", "settings": "fluoxetine 10 mg/kg i.p. daily, Org 34850 15 mg/kg i.p. twice daily or vehicle, fall following i.p. injection of fluoxetine 10 mg/kg, prefrontal cortex", "note": "Read-outs that look alike come from different tables or passages of the source.", "description": "In experimental animals this desensitization can be measured using microdialysis in the prefrontal cortex and a combination of local administration of an SSRI (fluoxetine) in the region of the probe to block local uptake and systemic injection which affects all uptake sites and leads to 5-HT1A autoreceptor activation.\nStudies were performed on Hooded Lister rats housed in groups of three with food and water available ad libitum. Animals were kept in controlled environmental conditions: temperature (20° C.) and humidity (30-50%) on a 12 h light/dark cycle (lights on 07.00 a.m.). Each cage received the same treatment and animals from a single cage studied on the same day to avoid social isolation. Animals underwent two treatments; vehicle or GR antagonist (15 mg/kg Org 34850, intraperitoneally (i.p.)) given as twice daily injections at 07:00-07:30 and 19:00-19:30. All animals received a single daily injection of fluoxetine (10 mg/kg in sterile water i.p.) given in the morning. Treatment periods were 0 (control), 3, 7 or 14 days.\nFor microdialysis animals were anaesthetised with chloral hydrate (500 mg/kg i.p. plus supplementary doses as required). Surgery was undertaken to position a microdialysis probe in the right prefrontal cortex (stereotaxic coordinates: rostral +3.2 mm, lateral 0.5 mm, ventral −4.6 mm from bregma and dura surface). The probe was perfused with artificial cerebrospinal fluid (aCSF) for 3 h until stable basal level of 5-HT is achieved. Samples were collected every 20 minutes and analysed by HPLC with electrochemical detection. The experimental protocol comprised three phases: i) Basal extracellular levels of 5-HT were measured for 60 min.; ii) Fluoxetine (10 μM) was added to the aCSF to block local uptake in order to measure total release rate. Samples were collected for 80 min. and iii) Fluoxetine was injected i.p. (10 mg/kg) to block all uptake sites, including at the autoreceptor, and samples were collected for 120 min. The magnitude of the fall in measured 5-HT levels after this injection was used as a measure of autoreceptor sensitivity.", "data": [{"smiles": "CNCCC(Oc1ccc(C(F)(F)F)cc1)c1ccccc1", "note": "(stereo not drawn) [fluoxetine]", "values": [{"measurement": "Mean Fall in 5-HT levels", "setting": "3 days pretreatment", "value": 7.59, "unit": "fmol"}, {"measurement": "Mean Fall in 5-HT levels", "setting": "7 days pretreatment", "value": 7.37, "unit": "fmol"}, {"measurement": "Mean Fall in 5-HT levels", "setting": "14 days pretreatment", "value": 4.85, "unit": "fmol"}]}]}
